Columns and labels:
[1] = system: mixture of fungi (C. albicans (ATCC #10231) and A. brasiliensis (ATCC #16404)); test: CTFA Preservative Challenge Test in shampoo, mixed fungi; type: cell-based; settings: shampoo containing the sample; initial count 7.9×10^5 cfu/mL; surviving organisms on day 7
Protocol: (§1) The CTFA Preservative Challenge Test was performed on a shampoo containing the samples below against a mixture of fungi (C. albicans (ATCC #10231) and A. brasiliensis (ATCC #16404)) having an initial count of 7.9×10^5 cfu/mL or a mixture of bacteria having an initial count of 4×10^6 cfu/mL. The shampoos inoculated with bacteria were allowed to stand for 14 days and the shampoos inoculated with fungi were allowed to stand for 7 days. The samples were evaluated for surviving organisms on day 7 for fungi-innoculated shampoos and days 7 and 14 for bacteria-innoculated shampoos.
From the table, synergism for the combinations above against mixed bacteria in shampoo was calculated by the method described in C. E. Kull et al., “Mixtures of Quaternary Ammonium Compounds and Long-chain Fatty Acids as Antifungal Agents”, Applied Microbiology, 9:538-541 (1961). The synergism value (QA/Qa+QB/Qb) was determined. […] Qa is the concentration of the first component alone (in percent by weight) required to yield 100% retardation of the bacteria or fungi. Qb is the concentration of the second component alone (in percent by weight) required to yield 100% retardation of the bacteria or fungi. When the value of (QA/Qa+QB/Qb) is less than one, the mixture is synergistic. Values for (QA/Qa+QB/Qb) of 1 and greater represent an additive effect and an antagonistic effect, respectively. […]

mixture of bacteria = test: CTFA Preservative Challenge Test in shampoo, mixed bacteria; type: cell-based; settings: for concentration of the component alone required to yield 100% retardation (Qa, Qb): percent by weight in shampoo, plate count <10 cfu/g after 7 days; for Day 7 Count Mixed Bacteria: shampoo containing the sample, initial count 4×10^6 cfu/mL, surviving organisms on day 7
Protocol: as §1
From the table, synergism for the combinations above against mixed bacteria in shampoo was calculated by the method described in C. E. Kull et al., “Mixtures of Quaternary Ammonium Compounds and Long-chain Fatty Acids as Antifungal Agents”, Applied Microbiology, 9:538-541 (1961). The synergism value (QA/Qa+QB/Qb) was determined. […] Qa is the concentration of the first component alone (in percent by weight) required to yield 100% retardation of the bacteria or fungi. Qb is the concentration of the second component alone (in percent by weight) required to yield 100% retardation of the bacteria or fungi. […] Values for (QA/Qa+QB/Qb) of 1 and greater represent an additive effect and an antagonistic effect, respectively.

CC(=O)c1ccc(O)cc1 [0.35% hydroxyacetophenone, 4-hydroxyacetophenone]
Day 7 Count Mixed Fungi [1]: 1.5 × 10^2 cfu/mL
concentration of the component alone required to yield 100% retardation (Qa, Qb) (mixture of bacteria): > 0.35%
Day 7 Count Mixed Bacteria (mixture of bacteria): 3.2 × 10^2 cfu/mL

OCCCO [5% 1,3-propanediol, 1,3-propanediol]
Day 7 Count Mixed Fungi [1]: 9.2 × 10^2 cfu/mL
concentration of the component alone required to yield 100% retardation (Qa, Qb) (mixture of bacteria): > 5%
Day 7 Count Mixed Bacteria (mixture of bacteria): 5.2 × 10^2 cfu/mL

From patent US20250268253A1, “MULTIFUNCTIONAL NATURAL PROTECTANT SYSTEMS WITH HYDROXYACETOPHENONE” (BARENTZ NORTH AMERICA, LLC, priority 2021, published 2025)
